For orientation: IC50 means the concentration at which inhibition is half-maximal. A higher IC50 goes with a need for much substance.

Sequence of hKIF18A (1-374) (Q8NI77 1-374): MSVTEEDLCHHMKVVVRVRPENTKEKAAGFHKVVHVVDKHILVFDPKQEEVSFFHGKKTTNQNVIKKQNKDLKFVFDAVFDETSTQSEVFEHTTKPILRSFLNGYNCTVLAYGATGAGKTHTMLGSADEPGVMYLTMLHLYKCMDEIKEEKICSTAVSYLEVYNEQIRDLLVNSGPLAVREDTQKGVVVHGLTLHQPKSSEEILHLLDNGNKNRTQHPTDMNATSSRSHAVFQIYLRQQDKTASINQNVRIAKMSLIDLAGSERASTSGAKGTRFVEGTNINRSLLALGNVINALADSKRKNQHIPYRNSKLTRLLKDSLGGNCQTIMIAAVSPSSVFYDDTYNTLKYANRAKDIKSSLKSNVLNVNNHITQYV

The assay addresses hKIF18A (1-374) (Homo sapiens (Human), UniProt Q8NI77). As to the kind of experiment: Inhibition of KIF18A microtubule-dependent ATPase activity (ADP-Glo). Type of assay: biochemical. The settings on record: 4 nM hKIF18A (1-374). The method in brief: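 Reaction was started with pre-formed microtubules and ATP (0.2 mg/mL and 2.0 mM in the added mix) and run 60 min at 28 °C. ADP was read by ADP-Glo luminescence, and IC50 came from a four-parameter fit of % inhibition.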
(In ADP-Glo the light output rises with the ADP produced.)
Consider `O=S(=O)(CCO)Nc1ccc(-n2cc(-c3ccc(C4CCCC4)o3)nn2)c(N2CCC3(CC2)CC3)c1` [Compound 126, N-(4-(4-(5-cyclopentylfuran-2-yl)-1H-1,2,3-triazol-1-yl)-3-(6-azaspiro[2.5]octan-6-yl)phenyl)-2-hydroxyethane-1-sulfonamide], for which the IC50 turned out to be 0.071 µM.
Next, `CS(=O)(=O)Nc1ccc(-n2cc(-c3cccc4c3OC3(CCCCC3)O4)nn2)c(N2CCC3(CC2)CC3)c1` [Compound 128, N-(3-(6-azaspiro[2.5]octan-6-yl)-4-(4-(spiro[benzo[d][1,3]dioxole-2,1′-cyclohexan]-4-yl)-1H-1,2,3-triazol-1-yl)phenyl)methanesulfonamide]: 0.098 µM; `O=S(=O)(CCO)Nc1ccc(-c2cn(-c3ccc(F)c(S(=O)(=O)N4CC(F)(F)C4)c3)nn2)c(N2CCC3(CC2)CC3)c1` [Compound 129, N-(4-(1-(3-((3,3-difluoroazetidin-1-yl)sulfonyl)-4-fluorophenyl)-1H-1,2,3-triazol-4-yl)-3-(6-azaspiro[2.5]octan-6-yl)phenyl)-2-hydroxyethane-1-sulfonamide]: 0.014 µM.
Next, `CCS(=O)(=O)Nc1ccc(-n2cc(-c3cc(CO)cc(N4CCC(F)(F)CC4)n3)nn2)c(N2CCC3(CC2)CC3)c1` [Compound 131, N-(4-(4-(6-(4,4-difluoropiperidin-1-yl)-4-(hydroxymethyl)pyridin-2-yl)-1H-1,2,3-triazol-1-yl)-3-(6-azaspiro[2.5]octan-6-yl)phenyl)ethanesulfonamide]: 0.029 µM; `CCS(=O)(=O)Nc1ccc(-n2cc(-c3ccc(S(=O)(=O)NC(C)(C)C)o3)nn2)c(N2CCC3(CC2)CC3)c1` [Compound 132, N-(tert-butyl)-5-(1-(4-(ethylsulfonamido)-2-(6-azaspiro[2.5]octan-6-yl)phenyl)-1H-1,2,3-triazol-4-yl)furan-2-sulfonamide]: 0.0085 µM; `CCS(=O)(=O)Nc1ccc(-n2cc(-c3cc(C)cc(C(O)C4CCC4)n3)nn2)c(N2CCC3(CC2)CC3)c1` (centres unmarked) [Compound 133, N-(4-(4-(6-(cyclobutyl(hydroxy)methyl)-4-methylpyridin-2-yl)-1H-1,2,3-triazol-1-yl)-3-(6-azaspiro[2.5]octan-6-yl)phenyl)ethanesulfonamide]: 0.012 µM.
Next, `CCS(=O)(=O)Nc1ccc(-n2cc(-c3ccc(F)c(C(O)C4CCCC4)n3)nn2)c(N2CCC3(CC2)CC3)c1` (centres unmarked) [Compound 134, N-(4-(4-(6-(cyclopentyl(hydroxy)methyl)-5-fluoropyridin-2-yl)-1H-1,2,3-triazol-1-yl)-3-(6-azaspiro[2.5]octan-6-yl)phenyl)ethanesulfonamide]: 0.014 µM.
For `CS(=O)(=O)Nc1ccc(-n2cc(-c3nc(N4CCC(F)(F)CC4)ns3)nn2)c(N2CCC3(CC2)CC3)c1` [Compound 135, N-(4-(4-(3-(4,4-difluoropiperidin-1-yl)-1,2,4-thiadiazol-5-yl)-1H-1,2,3-triazol-1-yl)-3-(6-azaspiro[2.5]octan-6-yl)phenyl)methanesulfonamide], the IC50 came out at 0.15 µM.
Then `O=S(=O)(CCO)Nc1ccc(-n2cc(-c3ccc(F)c(N4CCCCC4)n3)nn2)c(N2CCC3(CC2)CC3)c1` [Compound 136, N-(4-(4-(5-fluoro-6-(piperidin-1-yl)pyridin-2-yl)-1H-1,2,3-triazol-1-yl)-3-(6-azaspiro[2.5]octan-6-yl)phenyl)-2-hydroxyethane-1-sulfonamide], with 0.0065 µM; and `CCS(=O)(=O)Nc1ccc(-n2cc(-c3cncc(N4CCC(F)(F)CC4)n3)nn2)c(N2CCC3(CC2)CC3)c1` [Compound 137, N-(4-(4-(6-(4,4-difluoropiperidin-1-yl)pyrazin-2-yl)-1H-1,2,3-triazol-1-yl)-3-(6-azaspiro[2.5]octan-6-yl)phenyl)ethanesulfonamide], with 0.0063 µM; and `CCS(=O)(=O)Nc1ccc(-n2cc(-c3cc(C)cc(C(O)C4CCCC4)n3)nn2)c(N2CCC3(CC2)CC3)c1` (centres unmarked) [Compound 138, N-(4-(4-(6-(cyclopentyl(hydroxy)methyl)-4-methylpyridin-2-yl)-1H-1,2,3-triazol-1-yl)-3-(6-azaspiro[2.5]octan-6-yl)phenyl)ethanesulfonamide], with 0.026 µM.
Then `Cc1cc(-c2cn(-c3ccc(NS(=O)(=O)C4CC4)cc3N3CCC4(CC3)CC4)nn2)nc(C(O)C2CCCC2)c1` (centres unmarked) [Compound 139, N-(4-(4-(6-(cyclopentyl(hydroxy)methyl)-4-methylpyridin-2-yl)-1H-1,2,3-triazol-1-yl)-3-(6-azaspiro[2.5]octan-6-yl)phenyl)cyclopropanesulfonamide], with 0.04 µM; and `O=S(=O)(CCO)Nc1ccc(-c2cn(-c3ccc(F)c(N4CCC(F)(F)CC4)n3)nn2)c(N2CCC3(CC2)CC3)c1` [Compound 140, N-(4-(1-(6-(4,4-difluoropiperidin-1-yl)-5-fluoropyridin-2-yl)-1H-1,2,3-triazol-4-yl)-3-(6-azaspiro[2.5]octan-6-yl)phenyl)-2-hydroxyethane-1-sulfonamide], with 0.018 µM.
Then `CC1CCN(c2cc(NS(=O)(=O)CCO)ccc2-c2cn(-c3ccc(F)c(N4CCC(F)(F)CC4)n3)nn2)CC1` [Compound 141, N-(4-(1-(6-(4,4-difluoropiperidin-1-yl)-5-fluoropyridin-2-yl)-1H-1,2,3-triazol-4-yl)-3-(4-methylpiperidin-1-yl)phenyl)-2-hydroxyethane-1-sulfonamide], with 0.017 µM.
On to `O=S(=O)(CCO)Nc1ccc(-c2cn(-c3ccc(F)c(N4CC5CC5C4)n3)nn2)c(N2CCC3(CC2)CC3)c1` (centres unmarked) [Compound 142, N-(4-(1-(6-(3-azabicyclo[3.1.0]hexan-3-yl)-5-fluoropyridin-2-yl)-1H-1,2,3-triazol-4-yl)-3-(6-azaspiro[2.5]octan-6-yl)phenyl)-2-hydroxyethane-1-sulfonamide], for which the concentration for half-maximal inhibition (IC50) came to 0.026 µM.
Next, `CC1CCN(c2cc(NS(=O)(=O)CCO)ccc2-n2cc(-c3cncc(N4CCC(F)(F)CC4)n3)nn2)CC1` [Compound 143, N-(4-(4-(6-(4,4-difluoropiperidin-1-yl)pyrazin-2-yl)-1H-1,2,3-triazol-1-yl)-3-(4-methylpiperidin-1-yl)phenyl)-2-hydroxyethane-1-sulfonamide]: 0.0055 µM; `O=S(=O)(CCO)Nc1cc(N2CCC3(CC2)CC3)c(-n2cc(-c3cncc(N4CCC(F)(F)CC4)n3)nn2)cc1F` [Compound 144, N-(4-(4-(6-(4,4-difluoropiperidin-1-yl)pyrazin-2-yl)-1H-1,2,3-triazol-1-yl)-2-fluoro-5-(6-azaspiro[2.5]octan-6-yl)phenyl)-2-hydroxyethane-1-sulfonamide]: 0.0028 µM; `CCS(=O)(=O)Nc1ccc(-n2cc(-c3cnc(C)c(N4CCC(F)(F)CC4)n3)nn2)c(N2CCC3(CC2)CC3)c1` [Compound 145, N-(4-(4-(6-(4,4-difluoropiperidin-1-yl)-5-methylpyrazin-2-yl)-1H-1,2,3-triazol-1-yl)-3-(6-azaspiro[2.5]octan-6-yl)phenyl)ethanesulfonamide]: 0.017 µM.
Turning to `CCS(=O)(=O)Nc1ccc(-n2cc(-c3c[n+]([O-])cc(N4CCC(F)(F)CC4)n3)nn2)c(N2CCC3(CC2)CC3)c1` [Compound 146, 3-(4,4-difluoropiperidin-1-yl)-5-(1-(4-(ethylsulfonamido)-2-(6-azaspiro[2.5]octan-6-yl)phenyl)-1H-1,2,3-triazol-4-yl)pyrazine 1-oxide], the IC50 turned out to be 0.0044 µM.
As for `O=S(=O)(CCO)Nc1ccc(-c2cn(-c3ccc(F)c(N4CCCCC4)n3)nn2)c(N2CCC3(CC2)CC3)c1` [Compound 147, N-(4-(1-(5-fluoro-6-(piperidin-1-yl)pyridin-2-yl)-1H-1,2,3-triazol-4-yl)-3-(6-azaspiro[2.5]octan-6-yl)phenyl)-2-hydroxyethane-1-sulfonamide], the IC50 turned out to be 0.022 µM.
Next, `CCS(=O)(=O)Nc1ccc(-n2cc(-c3ccc(F)c(N4CCC(F)(F)CC4)n3)nn2)c(N2CCC3(CC2)CC3)c1` [Compound 148, N-(4-(4-(6-(4,4-difluoropiperidin-1-yl)-5-fluoropyridin-2-yl)-1H-1,2,3-triazol-1-yl)-3-(6-azaspiro[2.5]octan-6-yl)phenyl)ethanesulfonamide]: 0.031 µM; `CS(=O)(=O)Nc1ccc(-n2cc(-c3ccc(F)c(N4CCC(F)(F)CC4)n3)nn2)c(N2CCC3(CC2)CC3)c1` [Compound 149, N-(4-(4-(6-(4,4-difluoropiperidin-1-yl)-5-fluoropyridin-2-yl)-1H-1,2,3-triazol-1-yl)-3-(6-azaspiro[2.5]octan-6-yl)phenyl)methanesulfonamide]: 0.021 µM; `O=S(=O)(CCO)Nc1ccc(-n2cc(-c3cncc(OC4CCCC4)n3)nn2)c(N2CCC3(CC2)CC3)c1` [Compound 150, N-(4-(4-(6-(cyclpentyloxy)pyrazin-2-yl)-1H-1,2,3-triazol-1-yl)-3-(6-azaspiro[2.5]octan-6-yl)phenyl)-2-hydroxyethane-1-sulfonamide]: 0.006 µM.
Next, `Cc1cc(-c2cn(-c3ccc(NS(=O)(=O)CCCO)cc3N3CCC4(CC3)CC4)nn2)nc(N2CCC(F)(F)CC2)n1` [Compound 151, N-(4-(4-(2-(4,4-difluoropiperidin-1-yl)-6-methylpyrimidin-4-yl)-1H-1,2,3-triazol-1-yl)-3-(6-azaspiro[2.5]octan-6-yl)phenyl)-3-hydroxypropane-1-sulfonamide]: 0.027 µM; `Cc1cc(-c2cn(-c3ccc(NS(=O)(=O)CCO)cc3N3CCC4(CC3)CC4)nn2)nc(CN2CC(F)(F)C2)n1` [Compound 152, N-(4-(4-(2-((3,3-difluoroazetidin-1-yl)methyl)-6-methylpyrimidin-4-yl)-1H-1,2,3-triazol-1-yl)-3-(6-azaspiro[2.5]octan-6-yl)phenyl)-2-hydroxyethane-1-sulfonamide]: 0.014 µM.
In the case of `O=S(=O)(CCO)Nc1ccc(-n2cc(-c3ccc(F)c(N4CC5CC5C4)n3)nn2)c(N2CCC3(CC2)CC3)c1` (centres unmarked) [Compound 153, N-(4-(4-(6-(3-azabicyclo[3.1.0]hexan-3-yl)-5-fluoropyridin-2-yl)-1H-1,2,3-triazol-1-yl)-3-(6-azaspiro[2.5]octan-6-yl)phenyl)-2-hydroxyethane-1-sulfonamide], the IC50 is 0.016 µM.

The values above are taken from patent US20230382889A1 (Volastra Therapeutics, Inc., priority 2022, published 2023).
